Series [1] has as its system Streptococcus sp. 'group A'. The series is described as follows: Streptococcus pyogenes SK(-)GAS viability under kanamycin – luminescence, BacTiterGlo, confirmation, counter-screen for streptokinase expression inhibitor project, dose response (AID 1900). It counts as functional, organism-based. In general terms: A counterscreen serves to expose hits that act by an unwanted route or on another target.

The test system of series [2] is Streptococcus. As to the kind of experiment: GAS UMAA2166 growth inhibition – luminescence, BacTiterGlo, counter-screen for streptokinase expression inhibitor project, dose response (AID 1915).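 Further: potency for reduction of bacterial viability or growth.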 It counts as functional, organism-based.
In series [3] the test system is HEK293. As to the kind of experiment: NOD2 signaling inhibitors in MDP-stimulated cells, cell-based, uHTS, luminescence (AID 2001). The class given is functional. The conditions noted are these: Homo sapiens.
Series [4] deals with HEK293. The series is described as follows: cells. To be noted: Homo sapiens. It counts as functional, cell-based.
Series [5] relates to HEK293. As to the kind of experiment: cells. To be noted: Homo sapiens. It counts as functional, cell-based. The source holds these as a separate data set.
For series [6], the system named is HEK293. The series is described as follows: inhibition of NOD1-driven NF-kB reporter – cell-based, luminescence, uHTS, primary screen (AID 1578). The class given is functional. The conditions noted are these: Homo sapiens.
Series [7] has as its target T1, Streptokinase A (Streptococcus pyogenes serotype M1, UniProt P10520).
T1 sequence (P10520 whole entry): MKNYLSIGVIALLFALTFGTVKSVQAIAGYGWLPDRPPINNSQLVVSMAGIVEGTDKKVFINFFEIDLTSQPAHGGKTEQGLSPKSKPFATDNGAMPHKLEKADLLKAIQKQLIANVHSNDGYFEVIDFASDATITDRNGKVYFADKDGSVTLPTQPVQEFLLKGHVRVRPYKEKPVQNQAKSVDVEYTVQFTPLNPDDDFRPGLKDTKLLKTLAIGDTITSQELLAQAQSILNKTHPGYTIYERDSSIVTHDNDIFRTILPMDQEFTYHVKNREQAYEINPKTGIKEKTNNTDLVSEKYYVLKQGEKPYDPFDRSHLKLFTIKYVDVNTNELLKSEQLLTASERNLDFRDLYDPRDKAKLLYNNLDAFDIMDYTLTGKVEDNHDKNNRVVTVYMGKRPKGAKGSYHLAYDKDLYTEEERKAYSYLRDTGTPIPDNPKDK
The series is described as follows: viability-normalized secreted streptokinase activity reduction – plasminogen activation absorbance, OD405, dose response (AID 1914).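 Further: secreted streptokinase activity via plasminogen activation per viability signal from cell pellet.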 It counts as functional, Streptococcus pyogenes M1 GAS.

A short description of series [8]: HEK-293T viability loss after treatment – luminescence, T-cell screen hits, cytotoxicity control for TCR NF-kB inhibitor project, dose response (AID 489026).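 Further: cells exposed to compound about 14 hours before the viability readout.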 The class given is functional, cell-based.
The nature of series [9]: fluconazole-exposed Candida albicans growth modulators – fluorescence, retest, confirmation (AID 2467). It counts as functional, cell-based.
The nature of series [10]: NIH-3T3 fibroblast cytotoxicity, dose response, cytotoxicity control, cell-based, fluorescence, Alamar Blue, secondary assay (AID 2327).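 Further: NIH-3T3 mouse fibroblasts cultured with fluconazole at 8 µg/mL.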 The class given is functional. For orientation: Resazurin is reduced to fluorescent resorufin, in cell work by metabolically active cells.
The target of series [11] is Cytochrome P450 2C9 (Homo sapiens, UniProt P11712).
Sequence of Cytochrome P450 2C9 (P11712 whole entry): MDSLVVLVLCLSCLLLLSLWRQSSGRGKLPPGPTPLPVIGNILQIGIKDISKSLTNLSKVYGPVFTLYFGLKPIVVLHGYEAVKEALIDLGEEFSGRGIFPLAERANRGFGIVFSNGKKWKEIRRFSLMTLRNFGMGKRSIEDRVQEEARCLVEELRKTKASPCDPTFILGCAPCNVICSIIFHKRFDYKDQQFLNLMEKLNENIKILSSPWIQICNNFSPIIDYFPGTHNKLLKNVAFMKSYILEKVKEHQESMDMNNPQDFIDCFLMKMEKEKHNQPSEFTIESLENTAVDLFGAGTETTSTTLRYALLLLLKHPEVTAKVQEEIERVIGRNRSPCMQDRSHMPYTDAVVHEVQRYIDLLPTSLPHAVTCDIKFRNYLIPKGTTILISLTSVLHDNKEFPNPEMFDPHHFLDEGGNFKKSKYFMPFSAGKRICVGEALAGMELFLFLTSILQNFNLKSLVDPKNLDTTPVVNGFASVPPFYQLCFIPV
Series [12] concerns the target Cytochrome P450 2C19 (Homo sapiens, UniProt P33261). As to the kind of experiment: Cytochrome panel assay with activity outcomes. Panel member name: p450-cyp2c19 Compounds with AC50 equal or less than 10 uM are considered active. To be noted: read-out: AC50. It counts as functional.
A short description of series [13]: alpha-synuclein stem-loop luciferase translation blockers – H4 neuroglioma cells, luminescence, confirmation (AID 1988). The class given is functional, cell-based.
The nature of series [14]: Luminescence Cell-Based Dose Response HTS to Identify Inhibitors of 5'UTR Stem-Loop Driven Prion Protein mRNA Translation in H4 Neuroglioblastoma Cells. [Related pubchem assays: 1827 (Project Summary), 1813 (Primary HTS)]. It counts as functional.
The nature of series [15]: luciferase reporter signal suppression in cells – H4 neuroglioma cells, luminescence, dose response (AID 1990). It counts as functional, cell-based. (In general: In a reporter assay the amount or activity of a reporter protein is the signal.)
Series [16] deals with Vero. As to the kind of experiment: cells. It counts as functional. The conditions noted are these: Chlorocebus sabaeus.
Series [17] can be described thus: viability of PTEN-deleted HCT116 cells – cell-based, HCT116 PTEN knockout, dose response (AID 1047).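 Further: HCT116 colon tumor cells with PTEN knocked out; cells exposed to compound for 60 hours before readout; potency for loss of cell viability measured by luminescence.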 It counts as functional.
Series [18] can be described thus: viability of HCT116 lacking mutant beta-catenin – cell-based, human colon tumor, dose response (AID 1045).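 Further: HCT116 colon tumor cells with beta catenin knocked out; cells exposed to compound for 60 hours.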 It counts as functional.
Series [19] addresses T2, Microphthalmia-associated transcription factor (Homo sapiens, UniProt O75030).
T2 sequence (O75030 whole entry): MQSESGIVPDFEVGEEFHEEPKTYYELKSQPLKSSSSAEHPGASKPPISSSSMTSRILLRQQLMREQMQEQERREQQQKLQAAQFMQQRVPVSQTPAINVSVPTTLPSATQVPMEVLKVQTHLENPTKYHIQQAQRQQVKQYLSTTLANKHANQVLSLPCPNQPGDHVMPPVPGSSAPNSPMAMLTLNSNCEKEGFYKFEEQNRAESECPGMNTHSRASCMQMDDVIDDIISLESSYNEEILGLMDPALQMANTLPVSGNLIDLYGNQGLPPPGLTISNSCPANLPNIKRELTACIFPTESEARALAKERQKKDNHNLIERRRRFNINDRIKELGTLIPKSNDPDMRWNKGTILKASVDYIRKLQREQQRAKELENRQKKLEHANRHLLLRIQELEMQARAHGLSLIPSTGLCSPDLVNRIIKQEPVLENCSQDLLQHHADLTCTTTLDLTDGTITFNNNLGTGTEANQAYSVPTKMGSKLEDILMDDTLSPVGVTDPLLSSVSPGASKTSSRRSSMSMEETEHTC
The series is described as follows: reducers of TRPM1 reporter luminescence, concentration series – cell-based, SK-MEL-5, cherry-picked, set 3, MITF inhibitor project, dose response (AID 493073).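 Further: SK-MEL-5 melanoma cells with luciferase driven by the MITF target TRPM1 promoter.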 The class given is functional.

Series [20] addresses T3, Protein skinhead-1 (Caenorhabditis elegans, UniProt P34707).
T3 sequence (P34707 whole entry): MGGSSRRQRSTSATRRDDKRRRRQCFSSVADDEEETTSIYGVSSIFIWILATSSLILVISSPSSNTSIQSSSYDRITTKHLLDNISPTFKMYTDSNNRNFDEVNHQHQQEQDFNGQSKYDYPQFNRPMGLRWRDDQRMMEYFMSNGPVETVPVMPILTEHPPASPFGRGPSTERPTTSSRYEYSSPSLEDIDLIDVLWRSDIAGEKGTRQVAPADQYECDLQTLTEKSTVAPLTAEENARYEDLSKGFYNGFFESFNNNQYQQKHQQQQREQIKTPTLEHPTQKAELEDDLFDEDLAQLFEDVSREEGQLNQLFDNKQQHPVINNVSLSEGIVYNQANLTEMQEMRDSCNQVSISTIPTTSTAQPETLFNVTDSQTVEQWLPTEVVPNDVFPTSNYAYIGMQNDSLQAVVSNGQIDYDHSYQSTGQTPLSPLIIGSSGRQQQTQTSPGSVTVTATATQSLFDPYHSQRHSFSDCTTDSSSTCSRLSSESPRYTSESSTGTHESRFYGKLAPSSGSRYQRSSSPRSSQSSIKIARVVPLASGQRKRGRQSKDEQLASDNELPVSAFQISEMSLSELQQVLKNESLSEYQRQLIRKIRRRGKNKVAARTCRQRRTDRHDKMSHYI
The class given is functional.

19 compounds from ChEMBL document CHEMBL1201862, “PubChem BioAssay data set” (2004) can be followed below.

Active and inactive are the calls of the source. Where only a bound is given, the exact number is not on record here.

Sequence of Cytochrome P450 2C19 (P33261 whole entry): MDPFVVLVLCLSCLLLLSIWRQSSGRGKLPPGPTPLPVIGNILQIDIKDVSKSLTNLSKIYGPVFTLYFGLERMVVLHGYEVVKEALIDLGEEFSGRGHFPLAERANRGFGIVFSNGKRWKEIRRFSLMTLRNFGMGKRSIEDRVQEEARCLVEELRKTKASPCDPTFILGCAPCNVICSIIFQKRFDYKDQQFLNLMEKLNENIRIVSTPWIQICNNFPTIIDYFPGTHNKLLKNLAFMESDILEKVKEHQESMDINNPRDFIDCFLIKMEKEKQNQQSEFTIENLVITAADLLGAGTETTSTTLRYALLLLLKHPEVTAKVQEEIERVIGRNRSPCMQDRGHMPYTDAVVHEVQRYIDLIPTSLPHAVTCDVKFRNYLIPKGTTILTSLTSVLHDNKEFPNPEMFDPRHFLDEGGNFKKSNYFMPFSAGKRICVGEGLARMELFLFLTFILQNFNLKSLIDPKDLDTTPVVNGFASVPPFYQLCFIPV

For `Cn1c(O)c(N=NC(S)=Nc2ccccc2F)c2cc(S(=O)(=O)N3CCOCC3)ccc21`, the EC50 is 7.47 µM (active) in series [1], 44.2 µM (active) in series [2], > 20 µM (inactive) in series [6] and > 150 µM (not active) in series [7]. Moreover, the IC50 is 9.77 µM (active) in series [3], 19.1 µM (active) in series [4] and > 20 µM (inactive) in series [5].

With `CCOc1ccccc1C1CC(=O)Nc2cc3c(cc21)OCO3` (stereo not drawn), in [8], the IC50 is > 80 µM (inactive).

As for `Cc1ccc(C)c(SCC(=O)Nc2nnc(-c3ccccc3)o2)c1`, the EC50 in [9] is 2.1 µM (active); in [10], > 150 µM (inactive).

As for `COc1ccc([C@H]2CC(=O)C=C(c3c(OC)cccc3OC)C2)cc1`, in [8], the IC50 is > 80 µM (inactive).

As for `Cc1cccc(CNc2cc(-c3cccc(NS(C)(=O)=O)c3)ncn2)c1`, the AC50 entry in [11] was “inconclusive”.

Take `CC(=O)Nc1ccc(C#Cc2ccc(NC(C)=O)cc2)cc1`: the AC50 is 0.00631 µM (inconclusive) in series [12] and “inconclusive” in series [11]. For the same compound, the EC50 was 0.953 µM (active) in series [1]; 9.38 µM (active) in series [2]; 8.38 µM (active) in series [13]; 10.5 µM (active) in series [14]; 16.5 µM (active) in series [15]; > 150 µM (not active) in series [7].

Consider `COc1cccc(OC)c1C1=NCC(=O)Nc2c1oc1ccc(Br)cc21`, for which the IC50 in [8] is 71.8 µM (inactive). The EC50 is 0.267 µM (active) in [13], 0.566 µM (active) in [14] and 0.752 µM (active) in series [15].

On to `O=C(CC1(O)C(=O)N(Cc2cccc3ccccc23)c2ccccc21)c1cccnc1` (stereo not drawn), for which the CC50 in series [16] was > 25 µM (active).

With `Cc1ccc(NS(=O)(=O)c2ccc(CCC(=O)NCCO)cc2)cc1`, the EC50 in series [9] is > 38 µM (not active); in [10] it was > 150 µM (inactive).

In the case of `Cc1cccc(Nc2nnc(SCC(=O)NC(=O)Nc3ccc4c(c3)OCCO4)s2)c1`, the results for the EC50 in [17] and in [18] were 13 µM (active) and 9.93 µM (active), respectively. Moreover, in [16], the 50% cytotoxic concentration (CC50) was > 25 µM (active).

On to `CN(Cc1ccco1)c1cc(-c2cccc(C#N)c2)ncn1`, for which, in [11], the AC50 entry is recorded as “inconclusive”.

Consider `O=c1c2ccccc2nc(-c2ccc(Cl)cc2Cl)n1O`, for which the EC50 in series [9] is 2.06 µM (active); in series [10], > 160 µM (inactive).

With `Cc1ccc(S(C)=NS(=O)(=O)c2ccc(C)cc2)cc1` (stereo not drawn), the AC50 is 7.08 µM (inconclusive) in series [12] and “inconclusive” in series [11].

For `CCc1ccccc1NC(=O)c1ccc(-n2c(C)ccc2C)cc1`, the AC50 result in series [11] is “inconclusive”.

For `O=C(NC1C2CC3CC(C2)CC1C3)c1ccc(N2CCNCC2)c([N+](=O)[O-])c1` (stereo not drawn), the CC50 in series [16] is > 25 µM (active).

`N=c1n(CC(=O)c2ccc([N+](=O)[O-])cc2)c2ccccc2n1Cc1ccccc1Cl`: the AC50 in series [19] was 4.03 µM (active).

Regarding `Cc1ccc(C2CC(C(F)(F)F)n3nc(C(=O)NCc4c(C)nn(C)c4C)c(Cl)c3N2)cc1` (stereo not drawn), the IC50 in [20] was > 100 µM (inactive). The AC50 in series [19] is 8.89 µM (active).

Consider `O=C(NCc1ccccc1)C1c2ccccc2Oc2ccccc21`, for which the EC50 in series [9] was 2.43 µM (active); in series [10], > 150 µM (inconclusive).

As for `O=C(C=Cc1ccccn1)c1ccccc1`, the CC50 in series [16] is 9.58 µM (active).

For orientation: EC50 means the concentration at which the effect is half-maximal. Usually IC50 stands for the point on the concentration scale where inhibition reaches its midpoint. By AC50 is commonly meant the midpoint of the concentration-response curve, whichever way the signal moves. The term CC50 denotes the concentration giving 50% cytotoxicity.
